According to US20230128194A1, “METHODS AND COMPOSITIONS TO ALTER HEPATIC GABA RELEASE TO TREAT OBESITY-RELATED CONDITIONS” (ARIZONA BOARD OF REGENTS ON BEHALF OF THE UNIVERSITY OF …, priority 2017, published 2023):

Columns and labels:
[1] = test system: high fat diet-induced obese mice; experiment: tissue specific 3H-2-deoxy-D-glucose uptake after oral glucose gavage; format: in vivo, mouse; conditions: day 5, vs saline
Procedure: On the fifth day of EOS or PBS treatment 3H-2-deoxy-D-glucose (2DG; 10 uCi/mouse; PerkinElmer, Waltham, Mass.) was given to 4-hour fasted individually housed mice. Studies were performed in 2 cohorts on 2 different days. 2DG was given by oral gavage in a solution of glucose (2.5 g/kg) and each mouse received the same dose based off the average body weight for their cohort (0.1 mL/10 g body weight). Mice were anesthetized by isoflurane and sacrificed by cervical dislocation 45 minutes following oral gavage. Liver, soleus, quadriceps femoris, and gonadal white adipose tissue were collected, weighed, and dissolved overnight in 1N NaOH (0.5 mL/50 mg tissue) at 55° C. on a shaker plate. 0.5 mL of dissolved tissue was added to 5 mL of scintillation cocktail (Ultima Gold, PerkinElmer, Waltham, Mass.) and disintegrations per minute (DPM) were measured using a LS 6500 Multipurpose Scintillation Counter (Beckman Coulter, Brea, Calif.). DPM/g tissue weight was determined for each tissue and normalized based on a correction factor calculated by the average total DPM/g for all tissues divided by the total DPM/g for all tissues of the individual mouse.

[2] = test system: high fat diet-induced obese mice; experiment: muscle cGMP content (ELISA); format: in vivo, mouse; conditions: day 5
Procedure: On the fifth day of EOS or PBS treatment, mice were sacrificed and the quadricep and soleus tissues were collected and frozen on dry ice. Prior to analysis, frozen quadricep were powdered using a liquid nitrogen cooled mortar and pestle to obtain homogenous muscle samples. 15-20 mg of quadricep and the entire soleus tissue (6-12 mg) were homogenized in 200 μL of a 5% trichloroacetic acid solution. Following 15 minutes of centrifugation at 3,000×g at 4° C., supernatant was transferred to a fresh tube for analysis of muscle cGMP by enzyme-linked immunosorbent assay (ELISA; ADI-900-164, Enzo Life Sciences, Farmingdale, N.Y.).

[3] = test system: obese hepatic vagotomized and sham operated mice; experiment: EOS (8 mg/day) in HFD-induced obese sham operated and hepatic vagotomized mice; format: in vivo, mouse
Procedure: Surgeries were performed in 12-week old male C57BL/6J mice under isoflurane anesthesia. Mice were randomly assigned to a surgical group (sham or vagotomy). A ventral midline incision through the skin and peritoneum allowed us to isolate the hepatic vagus nerve as it branched from the esophagus. In vagotomized mice, the hepatic vagal nerve was severed, while it remained intact in sham operated mice. The peritoneum was sutured with absorbable polyglactin 910 suture and the skin with nylon suture. Mice were given a single post-operative dose of slow release formulated buprenorphine analgesic (1.2 mg/kg slow release, sub-cutaneous). Food intake and body weight were monitored daily and sutures were removed 7 days post-operation.
Wildtype lean and obese mice were randomly divided into treatment groups and dosed daily with 8 mg of ethanolamine-O-sulfate (EOS; Sigma-Aldrich, St. Louis, Mo.), vigabatrin (United States Pharmacopeia, Rockville, Md.) or PBS. Obese sham and vagotomy mice were dosed daily with 8 mg of EOS. In all cases, basal bleeds were taken prior to initiation of an ITT. Lean mice received treatment by oral gavage (0.3 mL/mouse) while obese mice were treated by intraperitoneal injection (0.3 mL/mouse). Pre-treatment studies were conducted in the week immediately prior to beginning drug administration. Daily doses took place at 9 am each day and oral glucose tolerance tests (OGTT) and insulin tolerance tests (ITT) were performed on the third and fourth days of treatment in lean mice, respectively. In wildtype obese mice, OGTT and ITT were performed on the fourth day of treatment in separate cohorts. On the fifth day of treatment, 2DG clearance studies were performed. In sham/vagotomy mice, OGTT and ITT were performed on the fourth and fifth day of treatment, respectively. After a 2-week washout period without treatment injection, a basal bleed and bleed 15 minutes after an oral glucose gavage ([…]) to determine oral glucose stimulated insulin secretion were performed.
Oral glucose (2.5 g/kg; 0.1 mL/10 g body weight; Chem-Impex Int'l Inc., Wood Dale, Ill.) was given to 4 hour fasted individually housed mice. All glucose tolerance tests began at […] and glucose was measured in whole blood, collected from the tail vein, by glucometer (Manufacture #D2ASCCONKIT, Bayer, Leverkusen, Germany) at 0, 15, 30, 60, 90, and 120 minutes after glucose gavage. Blood for serum insulin (oral glucose stimulated insulin secretion; OGSIS) and glucose determination was collected from the tail vein 15 minutes following glucose administration.
Intraperitoneal insulin (0.5 U/kg; 0.1 mL/10 g body weight; Sigma Aldrich, St. Louis, Mo.) was given to 4 hour fasted individually housed mice. All insulin tolerance tests began at […] and glucose was measured in whole blood, collected from the tail vein, by glucometer (Manufacture #D2ASCCONKIT, Bayer, Leverkusen, Germany) at 0, 30, 60, 90, and 120 minutes after insulin injection.

GABA-T = biological target: T1, GABA-T (Mus musculus, UniProt P61922); experiment: liver slice GABA export with GABA-T inhibitor ex vivo; format: cell-based; conditions: 5.3 mM
T1 construct: from tissue; host or cells: liver slices of lean, obese and obese Kir2.1-expressing mice
Source text: Two liver slices were taken from each mouse.

T1 sequence (P61922 29-500): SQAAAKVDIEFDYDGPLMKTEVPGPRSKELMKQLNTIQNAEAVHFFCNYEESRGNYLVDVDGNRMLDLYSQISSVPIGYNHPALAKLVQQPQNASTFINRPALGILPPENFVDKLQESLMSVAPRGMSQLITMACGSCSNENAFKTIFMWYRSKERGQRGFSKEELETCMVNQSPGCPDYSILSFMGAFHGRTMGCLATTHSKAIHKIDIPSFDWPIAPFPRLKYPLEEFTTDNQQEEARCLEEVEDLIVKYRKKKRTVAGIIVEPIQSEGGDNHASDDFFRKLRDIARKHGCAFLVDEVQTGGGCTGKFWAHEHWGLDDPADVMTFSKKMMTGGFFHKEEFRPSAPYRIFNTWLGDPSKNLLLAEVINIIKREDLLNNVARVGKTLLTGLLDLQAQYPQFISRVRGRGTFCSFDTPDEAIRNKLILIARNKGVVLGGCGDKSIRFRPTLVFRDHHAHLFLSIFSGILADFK

**Q.** What does the source list for `NCCOS(=O)(=O)O` [EOS, ethanolamine-O-sulfate]?
**A.** 2DG clearance by gonadal white adipose tissue [1]: did not affect; 2DG clearance by the quadriceps femoris [1]: did not affect; increase of 2DG uptake by the soleus [1]: 22%; cGMP in quad [2]: no effect; increase of cGMP in the soleus [2]: 59%; responses to EOS in vagotomized mice ([3]; hepatic vagotomized obese mice): eliminated most of the responses; serum glucose ([3]; hepatic vagotomized obese mice): decrease; glucose stimulated serum insulin ([3]; sham operated obese mice): diminished; glucose:insulin ratio ([3]; sham operated obese mice): elevated; insulin sensitivity by insulin tolerance test ([3]; sham operated obese mice): tended to improve; oral glucose tolerance ([3]; sham operated obese mice): improved; serum glucose ([3]; sham operated obese mice): decreased; serum insulin ([3]; sham operated obese mice): decreased; all parameters after washout ([3]; sham operated obese mice, 2-week washout): restored all parameters to pre-treatment measures; body weight between surgical groups ([3]; sham vs vagotomized, during EOS treatment): did not differ; GABA export (GABA-T; obese Kir2.1 expressing liver slices): decreased; GABA export (GABA-T; obese control liver slices): decreased
